System: PLCβ1
Experiment: Western blot of PLCβ1 in rat hippocampal slices
Format: cell-based, Sprague-Dawley rats
Settings: AβO+m-3M3FBS-treated rat hippocampal slices; similar to DMSO-treated slices
Experimental: Soluble AβO was prepared according to a previous study (BMC Biol. 2020; 18(1):7). Specifically, Aβ1-42 (Aβ) and a scrambled form of Aβ as a control peptide were purchased in powder form. Aβ and scrambled Aβ were dissolved for monomerization in 1,1,1,3,3,3-hexafluoro-2-propanol (HFIP, Sigma Aldrich, USA) at a final concentration of 1 mM, and the solution was incubated for 90 minutes. After the HFIP was evaporated, the remaining thin and clear film of Aβ or scrambled Aβ was dissolved in dimethyl sulfoxide (DMSO, Sigma Aldrich, USA) to prepare 5 mM Aβ or scrambled Aβ stocks, which were aliquoted and frozen at −20° C. Aβ or scrambled Aβ stocks were thawed and diluted to 100 μM in artificial cerebrospinal fluid (ACSF). Thereafter, Aβ or scrambled Aβ stocks were incubated for oligomerization for 18 hours. […]
Hippocampal PLCβ1 of SD rats and C57BL/6 or 5XFAD mice were prepared from homogenized hippocampi dissolved in 200 μL of RIPA buffer (Bio-Rad, USA), and were resolved on non-reducing 10% tris-glycine-sodium dodecyl sulfate-polyacrylamide gel electrophoresis (SDS-PAGE) gels (Bio-Rad, USA) using 4×Laemmli sample buffers (Bio-Rad, USA). […] Immunoreactivity was confirmed with enhanced chemiluminescence (Bio-Rad, USA) using a Fluorchem E system (ProteinSimple, USA) and analyzed with ImageJ software. […]

Cc1cc(C)c(S(=O)(=O)Nc2cccc(C(F)(F)F)c2)c(C)c1 [m-3M3FBS]
PLCβ1 protein levels in AβO-treated slices: completely restored
